Experimental data: ChEMBL document CHEMBL1201862, “PubChem BioAssay data set” (2004)
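Assay format: 96-well plates, 48-hour exposure. The concentration for 50% growth inhibition is given as GI50.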 Active and inactive are the calls of the source. Rule as the data show it: active = GI50 up to about 1.1 µM and inactive = higher.

Legend:
Assay in all cases: inhibition of tumour cell growth, NCI panel, 48 h
OVCAR-8 = system: OVCAR-8
EKVX = system: EKVX
KM12 = system: KM12
OVCAR-5 = system: OVCAR-5
SK-MEL-5 = system: SK-MEL-5
HOP-92 = system: HOP-92
UACC-257 = system: UACC-257
UACC-62 = system: UACC-62
SK-MEL-2 = system: SK-MEL-2
NCI-H23 = system: NCI-H23
IGROV-1 = system: IGROV-1
SNB-19 = system: SNB-19
HCT-116 = system: HCT-116
ACHN = system: ACHN
A549 = system: A549
HCT-15 = system: HCT-15
SNB-75 = system: SNB-75
HT-29 = system: HT-29
MDA-MB-435 = system: MDA-MB-435
LOX IMVI = system: LOX IMVI
M14 = system: M14
NCI/ADR-RES = system: NCI/ADR-RES
MCF7 = system: MCF7
HL-60 = system: HL-60
MDA-MB-231 = system: MDA-MB-231
SF-539 = system: SF-539
A498 = system: A498
Hs-578T = system: Hs-578T
SF-295 = system: SF-295
COLO 205 = system: COLO 205
NCI-H522 = system: NCI-H522
U-251 = system: U-251
SW-620 = system: SW-620
HCC 2998 = system: HCC 2998
PC-3 = system: PC-3
NCI-H460 = system: NCI-H460
MDA-N = system: MDA-N
MOLT-4 = system: MOLT-4
CCRF-CEM = system: CCRF-CEM
OVCAR-4 = system: OVCAR-4
RXF 393 = system: RXF 393
NCI-H226 = system: NCI-H226
OVCAR-3 = system: OVCAR-3
SF-268 = system: SF-268
Malme-3M = system: Malme-3M
UO-31 = system: UO-31
SN12C = system: SN12C
HOP-62 = system: HOP-62
CAKI-1 = system: CAKI-1
SR = system: SR
786-0 = system: 786-0
SK-OV-3 = system: SK-OV-3
DU-145 = system: DU-145
SK-MEL-28 = system: SK-MEL-28
BT-549 = system: BT-549
TK-10 = system: TK-10
K562 = system: K562
RPMI-8226 = system: RPMI-8226

For `c1ccc(CCNCc2ccco2)nc1`, the GI50 (OVCAR-8) was > 100 µM (inactive), the GI50 (EKVX) was > 100 µM (inactive) and the GI50 (KM12) was > 100 µM (inactive). For the same compound, the GI50 (OVCAR-5) was > 100 µM (inactive), the GI50 (SK-MEL-5) was > 100 µM (inactive) and the GI50 (HOP-92) was > 100 µM (inactive). The GI50 (UACC-257) was > 100 µM (inactive), the GI50 (UACC-62) was > 100 µM (inactive) and the GI50 (SK-MEL-2) was > 100 µM (inactive). For the same compound, the GI50 (NCI-H23) was > 100 µM (inactive), the GI50 (IGROV-1) was > 100 µM (inactive) and the GI50 (SNB-19) was > 100 µM (inactive). The GI50 (HCT-116) was > 100 µM (inactive), the GI50 (ACHN) was > 100 µM (inactive) and the GI50 (A549) was > 100 µM (inactive). For the same compound, the GI50 (HCT-15) was over 100 µM, the GI50 (SNB-75) was > 77.4 µM (inactive) and the GI50 (HT-29) was > 100 µM (inactive). For the same compound, the GI50 (MDA-MB-435) was > 100 µM (inactive), the GI50 (LOX IMVI) was > 100 µM (inactive) and the GI50 (M14) was > 100 µM (inactive). For the same compound, the GI50 (NCI/ADR-RES) was > 100 µM (inactive), the GI50 (MCF7) was > 83.9 µM (inactive) and the GI50 (HL-60) was > 100 µM (inactive). The GI50 (MDA-MB-231) was > 100 µM (inactive), the GI50 (SF-539) was > 100 µM (inactive) and the GI50 (A498) was > 100 µM (inactive). The GI50 (Hs-578T) was > 100 µM (inactive), the GI50 (SF-295) was > 100 µM (inactive) and the GI50 (COLO 205) was > 100 µM (inactive). For the same compound, the GI50 (NCI-H522) was > 100 µM (inactive), the GI50 (U-251) was > 100 µM (inactive) and the GI50 (SW-620) was > 100 µM (inactive). The GI50 (HCC 2998) was > 100 µM (inactive), the GI50 (PC-3) was > 100 µM (inactive) and the GI50 (NCI-H460) was > 100 µM (inactive). For the same compound, the GI50 (MDA-N) was > 100 µM (inactive), the GI50 (MOLT-4) was > 100 µM (inactive) and the GI50 (CCRF-CEM) was > 48.6 µM (inactive). The GI50 (OVCAR-4) was > 100 µM (inactive), the GI50 (RXF 393) was > 100 µM (inactive) and the GI50 (NCI-H226) was > 100 µM (inactive). For the same compound, the GI50 (OVCAR-3) was > 100 µM (inactive), the GI50 (SF-268) was > 100 µM (inactive) and the GI50 (Malme-3M) was > 100 µM (inactive). The GI50 (UO-31) was > 100 µM (inactive), the GI50 (SN12C) was > 100 µM (inactive) and the GI50 (HOP-62) was > 100 µM (inactive). For the same compound, the GI50 (CAKI-1) was > 100 µM (inactive), the GI50 (SR) was 1 µM (active) and the GI50 (786-0) was > 100 µM (inactive). The GI50 (SK-OV-3) was > 100 µM (inactive), the GI50 (DU-145) was > 100 µM (inactive) and the GI50 (SK-MEL-28) was > 100 µM (inactive). The GI50 (BT-549) was > 100 µM (inactive) and the GI50 (TK-10) was > 100 µM (inactive).
For `O=c1cc(CBr)c2ccc(O)cc2o1`, the GI50 (OVCAR-8) was 70.6 µM (inactive), the GI50 (EKVX) was 21.7 µM (inactive) and the GI50 (KM12) was 54.1 µM (inactive). For the same compound, the GI50 (OVCAR-5) was 8.39 µM (inactive), the GI50 (SK-MEL-5) was 45.9 µM (inactive) and the GI50 (UACC-257) was 64.4 µM (inactive). The GI50 (UACC-62) was 55.3 µM (inactive), the GI50 (SK-MEL-2) was > 100 µM (inactive) and the GI50 (NCI-H23) was 47.1 µM (inactive). The GI50 (IGROV-1) was 81.8 µM (inactive), the GI50 (SNB-19) was 84.3 µM (inactive) and the GI50 (HCT-116) was > 100 µM (inactive). For the same compound, the GI50 (ACHN) was 66.4 µM (inactive), the GI50 (A549) was 92.5 µM (inactive) and the GI50 (HCT-15) was 71.4 µM. For the same compound, the GI50 (SNB-75) was > 100 µM (inactive), the GI50 (HT-29) was 54.5 µM (inactive) and the GI50 (MDA-MB-435) was 39 µM (inactive). For the same compound, the GI50 (K562) was 69.8 µM (inactive), the GI50 (LOX IMVI) was > 100 µM (inactive) and the GI50 (M14) was 59.6 µM (inactive). The GI50 (NCI/ADR-RES) was 87.9 µM (inactive), the GI50 (MCF7) was 69.7 µM (inactive) and the GI50 (HL-60) was 48.3 µM (inactive). For the same compound, the GI50 (MDA-MB-231) was > 100 µM (inactive), the GI50 (SF-539) was > 100 µM (inactive) and the GI50 (A498) was 25.8 µM (inactive). For the same compound, the GI50 (Hs-578T) was > 100 µM (inactive), the GI50 (SF-295) was 45.7 µM (inactive) and the GI50 (COLO 205) was > 100 µM (inactive). For the same compound, the GI50 (NCI-H522) was 42.1 µM (inactive), the GI50 (U-251) was 53.3 µM (inactive) and the GI50 (SW-620) was > 100 µM (inactive). The GI50 (HCC 2998) was 76.6 µM (inactive), the GI50 (PC-3) was 62.4 µM (inactive) and the GI50 (NCI-H460) was 63.5 µM (inactive). The GI50 (MDA-N) was 98.9 µM (inactive), the GI50 (MOLT-4) was 60 µM (inactive) and the GI50 (CCRF-CEM) was 54.3 µM (inactive). The GI50 (RPMI-8226) was 38.5 µM (inactive), the GI50 (RXF 393) was 31.8 µM (inactive) and the GI50 (NCI-H226) was 78 µM (inactive). For the same compound, the GI50 (OVCAR-3) was 32 µM (inactive), the GI50 (SF-268) was > 100 µM (inactive) and the GI50 (Malme-3M) was 53.7 µM (inactive). For the same compound, the GI50 (UO-31) was 58.5 µM (inactive), the GI50 (SN12C) was 88.7 µM (inactive) and the GI50 (HOP-62) was 17 µM (inactive). For the same compound, the GI50 (CAKI-1) was 43.6 µM (inactive), the GI50 (SR) was 63 µM (inactive) and the GI50 (786-0) was > 100 µM (inactive). The GI50 (SK-OV-3) was 97.7 µM (inactive), the GI50 (DU-145) was 92 µM (inactive) and the GI50 (SK-MEL-28) was 80.4 µM (inactive). The GI50 (BT-549) was 35.1 µM (inactive) and the GI50 (TK-10) was 88.5 µM (inactive).
